Laboratory results reported in US5334715A, “1-piperazinyl-2-butenes and -2-butynes” (Hoechst-Roussel Pharmaceuticals Inc., priority 1993, dated 1994).
Structures can show the parent of a compound that is named as a salt.

Test system: apomorphine-induced climbing
Assay: climbing mice assay: block of apomorphine-induced climbing (antipsychotic activity)
Format: in vivo, CK-1 male mice
Conditions: Mus musculus, ip, read-out: Antipsychotic Activity ED50
Protocol: The subject CK-1 male mice (23-27 grams) are […] under standard laboratory conditions. The mice are individually placed in wire mesh stick cages (4"×4"10") and are allowed one hour for adaptation and exploration of the new environment.
For evaluation of climbing, 3 readings are taken at 10, 20, and 30 minutes after apomorphine administration according to the following scale:
2 paws on wall (rearing)
4 paws on the wall (full climbing)
Mice consistently climbing before the injections of apomorphine will be discarded.
With full-developed apomorphine climbing, the animals are hanging onto the cage walls, rather motionless, over long periods of time. By contrast, climbs due to mere motor stimulation usually only last a few seconds.
The climbing scores are individually totaled (maximal score: 6 per mouse over 3 readings) and the total score of the control group (vehicle intraperitoneally-apomorphine subcutaneously) is set 100%.

Question: How did the ED50 turn out when `O=C(CCCN1CCC(O)(c2ccc(Cl)cc2)CC1)c1ccc(F)cc1` [Haloperidol, reference compound] was run?
Answer: 0.11 mg/kg

Same assay, conditions: Mus musculus, ip; mice; intraperitoneal 30 minutes prior to apomorphine 1.5 mg/kg s.c.; climbing readings at 10, 20, 30 minutes; linear regression; read-out: Antipsychotic Activity ED50

Question: Which ED50 does the source give for `COc1ccccc1N1CCN(C/C=C/CN2C(=O)c3ccccc3C2=O)CC1` [E-1-(N-Phthalimido)-4-[4-(2-methoxyphenyl)-1-piperazinyl]-2-butene hydrochloride hemihydrate] here?
Answer: 7.3 mg/kg

Question: With `CCN1CCCC1CNC(=O)c1cc(S(N)(=O)=O)ccc1OC` (stereo not drawn) [Sulpiride, reference compound] as the compound, how does the ED50 read?
Answer: 4.5 mg/kg

Question: `COc1ccccc1N1CCN(C/C=C\CN2C(=O)CSC2=O)CC1` [Z-1-(3-Thiazolidine-2,4-dione)-4-[4-(2-methoxyphenyl)-1-piperazinyl]-2-butene dihydrochloride] was tested. Which ED50 did it give?
Answer: 19.8 mg/kg

Question: For `COc1ccccc1N1CCN(C/C=C\CN2C(=O)c3ccccc3C2=O)CC1` [Z-1-(N-Phthalimido)-4-[4-(2-methoxyphenyl)-4-piperazinyl)]-2-butene dihydrochloride], which ED50 is on record?
Answer: 10.3 mg/kg

Question: `COc1ccccc1N1CCN(C/C=C\CN2C(=O)c3ccc(Cl)cc3C2=O)CC1` [Z-1-N-(4-Chlorophthalimido)-4-[4-(2-methoxyphenyl)-1-piperazinyl]-2-butene dihydrochloride hemihydrate] was tested. Which ED50 did it give?
Answer: 15.4 mg/kg
